Source: patent US20070031485A1, “Pharmaceutical composition having a cationic excipient” (priority 2003, published 2007)
Where two headings read alike, the source gives them in different places.

Tests used:
[1] = Critical micelle concentration; type: physicochemical
[2] = tested on: intestinal mucosa (small intestine segments); experiment: Using (Ussing) diffusion chamber experiments, passage of marker molecules across rat small intestine; settings: betaine ester containing solution (0.5 % w/w) compared to control
Source text: (§1) A modified Using diffusion chamber with an exposed tissue area 1.78 cm^2 was used in the experiments. 15 to 20 cm of the small intestine, distal to the Ligament of Treitz was removed from rats (male Sprague-Dawley, 400-500 g) and used in the tests. Three rats and three segments per rat were included in each experimental group. The passage of different marker molecules, ^14C-mannitol and FITC-dextran (4400 FD4), from the mucosal to the serosal chamber were expressed as apparent permeability coefficient (Papp). The apparent permeability coefficient (Papp) to mannitol and FITC-dextran 4.400 across the intestinal mucosa was calculated from the equation: Papp (cm/s)×10-6)=dc/dt * (V/(A*C0)), where dc/dt is the change of the serosal concentration over time (mol/L/sec), V is the volume in the reservoir of the serosal side (cm^3), CO is the initial concentration of the marker in the mucosal reservoir (mol/L), and A is the exposed intestinal area in the chamber (cm^2) .
(§2) The difference in electric potential over the segments was measured before and after the experiment.

[3] = Stabilization of aqueous dispersion of cholesterol particles, visual appearance; type: physicochemical; settings: 1% cholesterol in 0.1% w/w (3 mM) dodecyl betainate solution
Protocol: The ability of dodecyl betainate to stabilize aqueous dispersions of hydrophobic particles was investigated in samples containing 1% cholesterol (of lanolin origin, Fluka) in pure water and in dodecyl betainate solutions of varying concentration. The samples were prepared by weighing the components into screw-capped glass vials that were first shaken, then kept in an ultrasonic bath for 5 minutes and finally shaken again before left for inspection. The table below presents the visual appearance of samples with different surfactant concentrations at different times.

[4] = tested on: intestinal mucosa (small intestine segments)
Source text: as §1, §2

[5] = type: physicochemical; settings: buffer
Source text: Surface-active betaine esters are even more susceptible to alkaline hydrolysis than non-surface active esters. The reason for the increased reactivity of surface-active betaine esters is that the ester bond will hydrolyse more readily when the surfactants are in the form of aggregates, i.e. micelles. Like all other surfactants, surface-active betaine esters form micelles at a certain concentration, the CMC, and further increase of the surfactant concentration just leads to the formation of more micelles; the concentration of free surfactant molecules stays constant. In the vast majority of applications of cationic surfactants the concentration is far above the CMC, which means that almost all surfactants are in an aggregated form. The micelles of betaine ester surfactants are highly positively charged since all the quaternary ammonium groups are located at the surface of the aggregate. The positive charges must be compensated for by negatively charged ions, so-called counterions. All types of negative ions present in the solution, including hydroxyl ions, will accumulate at the micelle surface. This means that the local concentration of hydroxyl ions will be higher in the vicinity of the micelle than in the bulk, or, differently expressed, the local pH around the micelles will be higher than in the bulk. […]

Protocol for Erythrocytes from rats: Erythrocytes from rats were washed 3 times and suspended in saline solution (0.9%) to a volume fraction of 0.025. The hemolys experiments were performed by mixing the erythrocyte suspension with surfactant solutions in a 1:1 ratio, thereby giving a finale erythrocyte volume fraction of 0.0125 and a surfactant concentration as stated in the figure. The samples were then incubated at 37° C. for 1 hour and centrifuged at 2000 g for 10 minutes. Aliquots of the supernatant was mixed with an equal volume of 15 mM C14TAC before the hemoglobin content was measured spectrophotometrically on a Lab systems iEMS Reader MF at 540 nm.
The concentrate was dispersed in saline solution by gentle stirring at room temperature just before the experiment. The resulting aqueous dispersion was tested in the same way as stated above for the surfactant solution.
The concentrations given in the figure represent the amounts of cationic surfactant in the tested solutions. […] The phosphatidyl choline used is Epikuron 200 from Degussa BioActives, a pharmaceutical grade product of soybean origin. All data are normalized to the absorbance obtained from hemolysis by the 0.5 mM tetradecyltrimethylammonium chloride sample.

| SMILES | critical micelle concentration (CMC) [1] [mM] | damage to segments, potential difference over the segments before and after treatment [2] | Visual appearance after 5 min. [3] | permeability of intestinal segments for marker molecules [4] | half-life (hydrolysis) [5] [h] | toxicity to red blood cells (relative haemolytic effect) (Erythrocytes from rats; at low concentrations, 37° C., 1 hour, compared with C14TAC) | toxicity to red blood cells (relative haemolytic effect) (Erythrocytes from rats; betaine ester co-formulated with phosphatidyl choline (weight ratio 20 to 80)) |
| --- | --- | --- | --- | --- | --- | --- | --- |
| CCCCCCCCCCCCCC[N+](C)(C)C.[Cl-] [C14TAC, tetradecyltrimethylammonium chloride, reference compound] | 2.5 |  |  |  |  |  |  |
| CCCCCCCCCCCCOC(=O)C[N+](C)(C)C [dodecyl betainate] | 3.1 | no increased damage | Turbid dispersion | not affected | 1.5 | lower than that of the stable surfactant C14TAC | further lowered |
| CCOC(=O)C[N+](C)(C)C [ethyl betainate, reference compound] |  |  |  |  | 9 |  |  |
